This is an account of results in US11744841B2, “Use of trezastilbenoside in manufacture of product for treating and/or preventing disease of respiratory system” (KPC PHARMACEUTICALS, INC., priority 2019, dated 2023).

The subject of data set [1] is excretion of phenol red from the mouse trachea. Description: Excretion amount of phenol red from the mouse trachea (expectorant effects). Format: in vivo, mice. Particulars: trachea wash in 2 mL 5% NaHCO3, absorbance at 546 nm, n = 10. The procedure:
2.3 Effects on the Excretion Amount of Phenol Red from the Mouse Trachea (Expectorant Effects)
40 mice were taken and randomly divided into 4 groups as described in 2.1. The positive control group received ambroxol hydrochloride tablets at 20 mg/kg. After the mice were acclimatized for 3 days, they were administered intragastrically once a day continuously for 7 days. The administration volume was 20 mL/kg, and 30 min after the last administration, each mouse was intraperitoneally injected with 5% phenol red solution at 0.2 mL/20 g, sacrificed after 30 min, fixed supine, neck straightened, surrounding connective tissue stripped to expose the trachea, and dissected to separate out a section of trachea that was from below the thyroid cartilage to the bifurcation of the trachea. Each trachea section was put into a test tube pre-filled with 2 mL of 5% NaHCO3 solution, ultrasonically washed for 15 min to release the tracheal phenol red out from the trachea completely, and centrifuged at 1000 r/min for 15 min to obtain a supernatant. The absorbance values of the supernatant at 546 nm were measured by an enzyme reader, and converted into the phenol red content by being compared with standard curves of phenol red.
(§1) Experimental data were analyzed using SPSS17.0 software, and expressed as means±standard deviations (x±SD). When the homogeneity of variance was complied, LSD test was used to make comparison between groups; and when the homogeneity of variance was not complied, Dunnett's T3 test was used to make comparison between groups. A P-value less than 0.05 means a statistical significance, and a P-value less than 0.01 means a significant statistical significance.

For data set [2], the system named is allergic asthma in guinea pigs. Description: Allergic asthma in guinea pigs (egg protein sensitisation and spray). Format: in vivo. Particulars: 1% egg protein spray, capped at 6 min. The procedure: 2.4 Effects on the Allergic Asthma in Guinea Pigs (Effects for Relieving Asthma)
40 guinea pigs, male and female each in half, having body weight of 250-280 g, were randomly divided into 4 groups as described in 2.1. The positive control group received aminophylline tablets at 100 mg/kg. After the guinea pigs were acclimatized for 3 days, they received 10% fresh egg protein solution at 10 mL/kg through an intraperitoneal injection. From the 15th day, it began to administer intragastrically to each group at 10 mL/kg. The negative control group received equal volume of 0.5% CMC-Na once per day continuously for 7 days. From the 17th day, it began to let the guinea pigs inhale 1% egg protein solution, by spraying through an asthma-inducing, for 15 min to elicit at 1-day intervals totally for 3 times. After the last irritation, the asthma latency in the guinea pigs, that is, the time from the beginning of spray to asthma attacks (cough, dyspnea, restlessness, convulsions, falling down or death), was recorded. For the guinea pigs which had not appeared asthma attack after 6 min, their latency was taken as 6 min.
as §1

Data set [3] concerns cough response of mice induced by concentrated ammonia. The data set is described as follows: Cough response of mice induced by concentrated ammonia (antitussive effects). Particulars: n = 10; for Number of coughs per 2 min: 25% ammonia spray; for Latency: cough latency, 25% ammonia spray 15 s, 1 h after last dose. Format: in vivo. The procedure:
2.1 Effects on the Cough Response of Mice Induced by Concentrated Ammonia (Antitussive Effects)
40 mice were taken and randomly divided into four groups, namely a negative control group (0.5% of CMC-Na: prepared before tests by weighting 5 g of CMC-Na into a beaker, adding 800 mL pure water thereto, stirring, heating, boiling, and cooling down, then using a measuring cylinder to adjust the volume to 1000 mL, to obtain the transparent, viscous liquid with a concentration of 0.5% for the preparation of test samples and solvent control. Such liquid prepared once and can be used for 5-7 days); a positive control group of codeine phosphate tablets at 60 mg/kg; Trezastilbenoside high dose (300 mg/kg) group; and Trezastilbenoside low dose (150 mg/kg) group. For each administration group, 0.5% CMC-Na was used for dissolving and diluting to a corresponding concentration. After the mice were accilimatized for 3 days, they were administered intragastrically once a day continuously for 7 days. The administration volume was 20 mL/kg, and 1 h after the last administration, the mice were placed one by one into a closed and dry container where the mist of 25% of concentrated ammonia was introduced into by spraying at constant pressure for 15 seconds to induce cough, then the cough latency and the number of coughs in mice during the 2-minute period were recorded thought observation.
as §1

Data set [4] has as its system cough in guinea pigs induced by citric acid spray. Description: Cough in guinea pigs induced by citric acid spray (antitussive effects). It is filed as in vivo. Particulars: n = 10; for Number of coughs per 5 min: 17.5% citric acid spray; for Latency: cough latency, 17.5% citric acid spray 1 min, latency capped at 5 min. The procedure: 2.2 Effects on the Cough in Guinea Pigs Induced by Citric Acid Spray (Antitussive Effects)
Healthy and sensitive guinea pigs (a pre-selection was carried out one day before the experiments, to exclude the guinea pigs which coughed less than 10 times during the five-minute period), having body weight of 250-280 g, male and female each in half were taken, and randomly divided into groups as described in 2.1. After the guinea pigs were acclimatized for 3 days, they were administered intragastrically once a day continuously for 5 days, and at the fifth day 1 hour after the administration, the guinea pigs were placed inside a 3 L sealed glass bell jar where 17.5% citric acid was sprayed into at constant pressure for 1 minute by an ultrasonic nebulizer. The cough latency and the number of coughs of the guinea pigs during the 5-minute period were recorded though observation. For guinea pigs whose latency exceeded 5 min, it was recorded as 5 min.
as §1

Data set [5] deals with ears swelling of mice induced by xylene. Description: Ears swelling of mice induced by xylene (anti-inflammatory effects). It is filed as in vivo. Particulars: for Swelling degree: xylene 20 μL on right ear, 30 min, weight difference of 6 mm ear pieces. The procedure: 2.5 Effects on Ears Swelling of Mice Induced by Xylene (Anti-Inflammatory Effects)
40 mice were taken and randomly divided into 4 groups of 10 mice each as described in 2.1, in which intragastric administration was conducted at 10 mL/kg, the positive control group received dexamethasone acetate tablets at 5 mg/kg, and the negative control group received equal volume of 0.5% CMC-Na, once per day continuously for 7 days. At the night before the experiments, the mice were fasted but had access to water for 12 h. At the 7th day, 30 min after the administration, the mice were evenly smeared with the inflammatory agent xylene (20 μL for each mouse) at the front and back sides of right ears to cause inflammation, and killed by cervical dislocation after 30 min, with their both ears cut along the baseline of the auricle. The ear pieces of the same part of the both ears were punched out with a hole punch of 6 mm diameter, and weighted by an analytical balance. The difference between the weights of the two ears was the swelling degree (mg), and the swelling inhibition rate (%) was calculated. Swelling inhibition rate=(Average swelling degree of the control group−Average swelling degree of the administration group)/Average swelling degree of the control group 2.6 Statistical Methods:
as §1

The conditions of data set [6]: safety researches, background statement; cited from earlier work.
For data set [7] the following is noted: safety researches, background statement; cited from earlier work. The source holds these as a separate data set.
Where [8] appears, read: 60 mg/kg intragastric once a day for 7 days.
[9] abbreviates: 60 mg/kg intragastric once a day for 5 days.
The mark [10] stands for this setting: 150 mg/kg intragastric once a day for 7 days.
The mark [11] stands for this setting: 300 mg/kg intragastric once a day for 7 days.
The mark [12] stands for this setting: 150 mg/kg intragastric once per day for 7 days.
Where [13] appears, read: 300 mg/kg intragastric once per day for 7 days.
Where [14] appears, read: 150 mg/kg intragastric once a day for 5 days.
The mark [15] stands for this setting: 300 mg/kg intragastric once a day for 5 days.

Structures can show the parent of a compound that is named as a salt.

The molecule `Nc1c(Br)cc(Br)cc1CN[C@H]1CC[C@H](O)CC1` [Ambroxol hydrochloride tablet, Ambroxol hydrochloride, reference compound] had a Phenol red concentration in data set [1] (ambroxol hydrochloride 20 mg/kg (positive control) intragastric once a day for 7 days) of 4.23 ± 1.34 µg/mL.

Take `Cn1c(=O)c2[nH]cnc2n(C)c1=O` [Aminophylline tablet, Aminophylline, reference compound]: the “Latency” value in data set [2] (100 mg/kg intragastric once per day for 7 days) is reported as 94.23 ± 31.55 s.

On to `COc1ccc2c3c1O[C@H]1[C@@H](O)C=C[C@H]4[C@@H](C2)N(C)CC[C@@]341` [Codeine phosphate tablets, Codeine phosphate, reference compound], for which, in data set [3] (setting [8]), the “Number of coughs per 2 min” value is 15.13 ± 7.83 and the “Latency” value is listed as 56.23 ± 16.46 s. For the same molecule, in data set [4] (setting [9]), the “Number of coughs per 5 min” value is reported as 7.83 ± 3.83 and the “Latency” value was 130.48 ± 59.34 s.

One may read the inhibition as the change of the read-out against control, counted positive when it falls. For `CC(=O)OCC(=O)[C@@]1(O)[C@H](C)C[C@H]2[C@@H]3CCC4=CC(=O)C=C[C@]4(C)[C@@]3(F)[C@@H](O)C[C@@]21C` [Dexamethasone acetate tablet, Dexamethasone acetate, reference compound], the “Swelling degree” value in data set [5] (5 mg/kg intragastric once per day for 7 days) turned out to be 1.24 ± 0.67 mg. In addition, the inhibition at 5 mg/kg in data set [5] (Mus musculus, po, 168 h, 5 mg/kg intragastric once per day for 7 days, relative to average swelling degree of control group, read-out: Swelling inhibition rate (%)) came to 65.9%.

As for `OC[C@H]1O[C@@H](Oc2cc(/C=C/c3cc(O)cc(O)c3)ccc2O)[C@H](O)[C@@H](O)[C@@H]1O` [Trezastilbenoside], the “Number of coughs per 2 min” value in data set [3] (setting [10]) is on record as 25.88 ± 9.25; in data set [3] (setting [11]) it was 19.63 ± 10.27. The “Latency” value is given as 41.23 ± 13.67 s in data set [3] (setting [10]); 48.56 ± 16.53 s in data set [3] (setting [11]); 104.35 ± 45.23 s in data set [4] (setting [14]); 116.78 ± 53.96 s in data set [4] (setting [15]); 69.28 ± 21.20 s in data set [2] (setting [12]); 83.68 ± 36.13 s in data set [2] (setting [13]). Besides, the “Chromosome aberrations or mutagenesis in the genetic test” value in data set [6] is listed as “no chromosome aberrations or mutagenesis were found”. In addition, the “Swelling degree” value was 3.12 ± 2.52 mg in data set [5] (setting [12]) and 2.21 ± 1.45 mg in data set [5] (setting [13]). Further, the inhibition at 150 mg/kg in data set [5] (Mus musculus, po, 168 h, 150 mg/kg intragastric once per day for 7 days, relative to average swelling degree of control group, read-out: Swelling inhibition rate (%)) is 14.3%. Besides, the inhibition at 300 mg/kg in data set [5] (Mus musculus, po, 168 h, 300 mg/kg intragastric once per day for 7 days, relative to average swelling degree of control group, read-out: Swelling inhibition rate (%)) was 39.3%. Also, the “Number of coughs per 5 min” value in data set [4] (setting [14]) is 13.88 ± 5.25; in data set [4] (setting [15]), 9.63 ± 3.20. Also, in data set [7], the “Toxic side reactions and death in acute toxicity tests” value was “no toxic side reactions and death occurred”. For the same molecule, the Phenol red concentration in data set [1] (setting [10]) was 3.28 ± 1.20 µg/mL; in data set [1] (setting [11]), 3.88 ± 1.43 µg/mL.
